Like-named read-outs stand apart in the source and are kept apart here.
Legend:
[1] = biological target: T1, p38β (Homo sapiens, UniProt Q15759); experiment: ADP-Glo in vitro kinase assay, p38β; assay type: biochemical
T1 construct: human recombinant p38 α, β, γ or δ protein (active full-length); purchased SignalChem; host or cells: baculovirus in Sf9 insect cells
Description: Kinase assay in vitro: Kinase enzyme assays in vitro were performed using ADP-Glo kit (Promega, Wis.). The luminescent ADP-Glo kinase assay measures ADP produced from ATP consumption in a kinase enzyme reaction. All compounds have been tested and shown no inhibition to luciferase activities. Briefly, in this experiment, human recombinant p38 α, β, γ or δ protein (active full-length) expressed by baculovirus in sf9 insect cells (SignalChem, Vancouver, Canada) was homogenized in wells of white opaque 96-well microplates with the kinase buffer that consisted of 40 mM Tris-HCl (pH 7.5), 20 mM MgCl2, 0.1 mg/mL BSA and 50 μM DTT. […] Next, synthetic peptide substrates ([…]) were added to the mixture at final concentration of 0.2 μg/μL, followed by adding ATP at various concentrations. The 50 μL mixture was reacted at room temperature for 60 min. […]
In vitro kinase assay (ADP-GLO): We identified p38γ inhibitors using in vitro kinase assay by screening a library of kinase inhibitors: The library consists of 244 compounds on three plates (EMD Cat #539744, #539745, and #539746) that are mostly ATP mimics. […] IC50 values were determined using […] software (Biosoft, Cambridge, United Kingdom).

[2] = test system: phosphorylation of DLGH1 at Ser158; experiment: Western blot of pDLGH1-Ser158 in CTCL cells; assay type: cell-based, human; settings: SS cells, Hut78 and H9 cells; 50-100 nM
Description: Western blot: Western blots were performed as described previously [5]. Rabbit primary antibodies (Cell Signaling Technology (CST), Danvers, Mass.) were used at the following dilutions: anti-p38α, -p38β, -p38γ, and -p38δ (1:1000), anti-B-tubulin (1:2000), anti-p38 GAPDH 1:1000. […] For detection of p38γ protein level in SS patient samples we used a monoclonal antibody that close to N-terminus of human p38γ MAPK (SAPK3) from Abcam ((ab205926).

[3] = biological target: T2, p38δ (Homo sapiens, UniProt O15264); experiment: Radiometric in vitro kinase assay (SignalChem), p38 δ; assay type: biochemical; set-up: purchased SignalChem (assay service); settings: 50 nM
T2 sequence (O15264 1-365): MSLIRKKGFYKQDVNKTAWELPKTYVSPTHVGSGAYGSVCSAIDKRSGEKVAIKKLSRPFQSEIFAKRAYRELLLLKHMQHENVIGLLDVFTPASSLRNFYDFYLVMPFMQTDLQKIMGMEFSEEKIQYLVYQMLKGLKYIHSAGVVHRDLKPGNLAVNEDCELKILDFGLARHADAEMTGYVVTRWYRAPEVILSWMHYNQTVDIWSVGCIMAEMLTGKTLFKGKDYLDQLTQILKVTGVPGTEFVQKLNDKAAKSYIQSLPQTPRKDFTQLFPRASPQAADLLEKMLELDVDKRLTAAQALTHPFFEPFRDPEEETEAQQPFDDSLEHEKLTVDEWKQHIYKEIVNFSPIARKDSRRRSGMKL
Description: (§1) Radiometric in vitro kinase assay: Radiometric in vitro kinase assay was performed by [sequence]

[4] = test system: Hut78 cells; experiment: NanoString RNA gene expression profiling, Hut78; assay type: cell-based, human; settings: 50 nM, 10 h
Description: All samples were validated. Data were analyzed using nSolver 3.0 digital analyzer software and R program.

[5] = test system: H3K27 acetylation; experiment: Immunofluorescence confocal microscopy of H3K27 acetylation; assay type: cell-based, human; settings: 800 nM, 10 hr
Description: Immunofluorescence Confocal microscopy: Hut 78 Cells were cytospun unto the slides and fixed with 3.8% paraformaldehyde for 30 min at room temperature (RT) and then permeabilized with 0.25% Triton X-100 in PBS, for 10 min at RT. The cells were washed twice with PBS and blocked in 3% BSA in PBS for 1 h at RT. […] Coverslips were permanently mounted with DAPI (life Technologies) for nuclear staining. Observations were carried out using a confocal laser scanning microscope (zeiss LSM 700). Primary antibodies were used at the following dilutions: anti-ß-tubulin (1:200), H3K27 ac (CST, dilution 1:500), p-p38 (CST, dilution 1:500), DLGH1 (abcam) 1:1000.

[6] = test system: normal CD4+ T cells from healthy donors; experiment: Cell viability, healthy CD4+ T cells; assay type: cell-based, human; settings: 100 nM
Description: Compound, Samples, and Cell Culture: […] Isolation of PBMCs or CD4^+T cells from both patients and healthy donors and culture of CTCL cell lines (Hut78, HH, and H9) were performed as previously described.

[7] = biological target: T3, p38 γ (Homo sapiens, UniProt P53778); experiment: Radiometric in vitro kinase assay (SignalChem), p38 γ; assay type: biochemical; set-up: purchased SignalChem (assay service); settings: 200 nM
T3 sequence (P53778 1-367): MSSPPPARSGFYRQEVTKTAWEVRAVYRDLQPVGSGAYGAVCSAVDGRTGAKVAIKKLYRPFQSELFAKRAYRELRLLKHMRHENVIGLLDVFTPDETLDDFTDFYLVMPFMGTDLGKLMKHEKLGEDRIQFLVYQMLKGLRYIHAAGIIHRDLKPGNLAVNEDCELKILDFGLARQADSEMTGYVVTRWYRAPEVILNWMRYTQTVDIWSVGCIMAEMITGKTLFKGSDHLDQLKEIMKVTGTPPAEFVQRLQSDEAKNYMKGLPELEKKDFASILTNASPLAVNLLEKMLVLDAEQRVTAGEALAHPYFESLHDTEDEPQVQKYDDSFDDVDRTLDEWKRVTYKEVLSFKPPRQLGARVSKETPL
Description: as §1

[8] = test system: Hut78 xenografts; settings: for tumor growth: intraperitoneal, vs vehicle
Description: Female and male 6-week-old NSG mice (NOD-scid IL2Rγ null) were purchased from Jackson Laboratory (Sacramento, Calif.). Hut78 cells were used for developing CTCL xenograft tumors. Briefly, 5 million cells in 100 μL (50% Matrigel/50% PBS) were injected subcutaneously into the right flank of each mouse, and tumor development was monitored every other day. Once the tumors are were palpable and reached 100 mm^3 in volume, treatment was commenced. […] Mice were treated every two days via intraperitoneal injection. Tumors were measured twice per week using calipers.

T1 sequence (Q15759 whole entry): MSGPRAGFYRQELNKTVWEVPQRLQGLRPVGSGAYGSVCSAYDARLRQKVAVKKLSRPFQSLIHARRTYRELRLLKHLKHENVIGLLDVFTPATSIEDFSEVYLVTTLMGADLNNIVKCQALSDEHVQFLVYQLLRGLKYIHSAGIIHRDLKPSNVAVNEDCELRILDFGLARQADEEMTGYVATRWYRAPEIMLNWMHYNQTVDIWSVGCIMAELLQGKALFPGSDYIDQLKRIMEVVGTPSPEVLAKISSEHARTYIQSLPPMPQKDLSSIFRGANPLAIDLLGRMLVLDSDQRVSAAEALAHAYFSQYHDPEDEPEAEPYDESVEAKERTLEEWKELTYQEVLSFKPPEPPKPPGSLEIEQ

Cc1ccc([N+](=O)[O-])cc1S(=O)(=O)N(C)/N=C/c1cnc2ccc(Br)cn12 [Compound 1]
dose-dependent inhibition of kinase activity [1]: not
phosphorylation of DLGH1 at Ser158 [2]: inhibited phosphorylation of DLGH1 at Ser158
inhibition at 0.05 µM [3]: 5.4%
Activation z-score ([4]; IL-6 Signaling): −3.109
Activation z-score ([4]; NF-kB signaling): −3.623
Activation z-score ([4]; PI3K signaling): −3.108
Activation z-score ([4]; PI3KI/AKT signaling): −0.63
Activation z-score ([4]; PTEN): 1.25
Activation z-score ([4]; Role of NFAT in regulation of the immune response): −3.962
Activation z-score ([4]; Th1 pathway): −3.533
Activation z-score ([4]; Th2 pathway): −2.236
Activation z-score ([4]; Wnt/B-catenin signaling): 1.152
H3K27 acetylation [5]: blocked H3K27 acetylation
cell viability [6]: spared
inhibition at 0.2 µM [7]: 59%
tumor growth ([8]; 2 mg/kg): statistically significant inhibition of tumor growth
tumor growth ([8]; 10 mg/kg): further significant reduction of tumor size
tumor growth ([8]; 10 mg/kg, listed as F7/PIK75): significantly inhibited tumor growth
toxic effects in animal studies ([8]; mouse, in vivo): did not observe any toxic effects
